The results in this text go back to ChEMBL document CHEMBL4130409, “Gordonic Acid, a Polyketide Glycoside Derived from Bacterial Coculture of Streptomyces and Gordonia Species” (J Nat Prod, 2017).

The test system of one data set is Enterococcus hirae. The data set can be described thus: Antibacterial activity against Enterococcus hirae KCCM 11768 assessed as zone of inhibition at 10 microg/disk after 18 to 36 hrs by agar diffusion method. In kind it is functional. As to conditions: read-out: DIZ. For orientation: A growth-free zone around the sample is the usual read-out of agar diffusion tests.

The subject of the next data set is Micrococcus luteus. Briefly: Antibacterial activity against Micrococcus luteus KCCM 11548 assessed as zone of inhibition at 10 microg/disk after 18 to 36 hrs by agar diffusion method. It counts as functional. As to conditions: read-out: DIZ.
The subject of the next data set is Gordonia sp. Briefly: Growth inhibition of Gordonia sp. KMC005 after 18 to 36 hrs by agar diffusion method.
The subject of the next data set is Streptomyces tendae. Briefly: Growth inhibition of Streptomyces tendae KMC006 after 18 to 36 hrs by agar diffusion method. It counts as organism-based. As to conditions: in vivo.

In the case of `CC1(C)S[C@@H]2[C@H](NC(=O)[C@H](N)c3ccccc3)C(=O)N2[C@H]1C(=O)O` [AMPICILLIN], the zone of inhibition at 10 µg/disc with Enterococcus hirae is 8 mm; with Micrococcus luteus it was 10 mm.

For `CC(/C=C/C=C/C=C/C=C/C(O)=C1\C(=O)[C@H](CCC(=O)O)N(C)C1=O)=C\[C@@H](C)[C@@H](O[C@H]1C[C@H](O)[C@H](O)[C@@H](C)O1)C(C)C`, the Activity entry in the data set on Gordonia sp. and with Streptomyces tendae was “Non-Toxic” throughout.

Consider `CC(/C=C/C=C/C=C/C=C/C(=O)O)=C\[C@@H](C)[C@@H](O[C@H]1C[C@H](O)[C@H](O)[C@@H](C)O1)C(C)C`, for which the Activity result in the data set with Gordonia sp. and in the data set on Streptomyces tendae was “Non-Toxic” each time. For the same compound, the figures for the zone of inhibition at 10 µg/disc in the data set with Enterococcus hirae and in the data set with Micrococcus luteus were 1.5 mm and 2.5 mm, respectively.
